Values of other authors, collected in PubChem BioAssay AID1259409 (Chemical Carcinogenesis Research Information System (CCRIS), 2018).

Test system: rodent chemically induced tumor inhibition, incidence and multiplicity
Experiment: CCRIS tumor inhibitor studies
Conditions: Species: RAT, Strain/Sex: F344/MALE

Compound: O=P(O)(O)OC1C(OP(=O)(O)O)C(OP(=O)(O)O)C(OP(=O)(O)O)C(OP(=O)(O)O)C1OP(=O)(O)O (stereo not given)
- tumour outcome (control, treated, inhibition, significance) (Carcinogen: 2,2'-DIHYDROXY-DI-N-PROPYLNITROSAMINE [621-64-7], N-ETHYL-N-HYDROXYETHYLNITROSAMINE [13147-25-6], 3,2'-DIMETHYL-4-AMINOB, Carcinogen: 2,2'-DIHYDROXY-DI-N-PROPYLNITROSAMINE [621-64-7], N-ETHYL-N-HYDROXYETHYLNITROSAMINE [13147-25-6], 3,2'-DIMETHYL-4-AMINOB, Dose [Inhibitor]: 2% IN DIET FOR 32 WK BEGINNING 1 WK POST LAST CARCINOGEN DOSE (STUDY DURATION: 32 WK), Route [Inhibitor]: ORAL, Target Tissue: Type of Lesion: LIVER: ADENOMA, Dose [Carcinogen]: 1000 MG/KG BW DHPN IP 2X/3 WK, 1500 MG/KG BW EHEN IP 2X/3 WK, 75 MG/KG BW DMAB SC 3X/3 WK;, Dose [Carcinogen]: 1000 MG/KG BW DHPN IP 2X/3 WK, 1500 MG/KG BW EHEN IP 2X/3 WK, 75 MG/KG BW DMAB SC 3X/3 WK;, Promoter: NONE): 9/14 (64%), 5/12 (42%), 34%, p<0.01
- tumour outcome (control, treated, inhibition, significance) (Carcinogen: 2,2'-DIHYDROXY-DI-N-PROPYLNITROSAMINE [621-64-7], N-ETHYL-N-HYDROXYETHYLNITROSAMINE [13147-25-6], 3,2'-DIMETHYL-4-AMINOB, Carcinogen: 2,2'-DIHYDROXY-DI-N-PROPYLNITROSAMINE [621-64-7], N-ETHYL-N-HYDROXYETHYLNITROSAMINE [13147-25-6], 3,2'-DIMETHYL-4-AMINOB, Dose [Inhibitor]: 2% IN DIET FOR 32 WK BEGINNING 1 WK POST LAST CARCINOGEN DOSE (STUDY DURATION: 32 WK), Route [Inhibitor]: ORAL, Target Tissue: Type of Lesion: LIVER: CARCINOMA, Dose [Carcinogen]: 1000 MG/KG BW DHPN IP 2X/3 WK, 1500 MG/KG BW EHEN IP 2X/3 WK, 75 MG/KG BW DMAB SC 3X/3 WK;, Dose [Carcinogen]: 1000 MG/KG BW DHPN IP 2X/3 WK, 1500 MG/KG BW EHEN IP 2X/3 WK, 75 MG/KG BW DMAB SC 3X/3 WK;, Promoter: NONE): 6/14 (43%), 1/12 (8%), 81%, not significant
- tumour outcome (control, treated, inhibition, significance) (Carcinogen: 2,2'-DIHYDROXY-DI-N-PROPYLNITROSAMINE [621-64-7], N-ETHYL-N-HYDROXYETHYLNITROSAMINE [13147-25-6], 3,2'-DIMETHYL-4-AMINOB, Carcinogen: 2,2'-DIHYDROXY-DI-N-PROPYLNITROSAMINE [621-64-7], N-ETHYL-N-HYDROXYETHYLNITROSAMINE [13147-25-6], 3,2'-DIMETHYL-4-AMINOB, Dose [Inhibitor]: 2% IN DIET FOR 32 WK BEGINNING 1 WK POST LAST CARCINOGEN DOSE (STUDY DURATION: 32 WK), Route [Inhibitor]: ORAL, Target Tissue: Type of Lesion: LUNG: ADENOMA, Dose [Carcinogen]: 1000 MG/KG BW DHPN IP 2X/3 WK, 1500 MG/KG BW EHEN IP 2X/3 WK, 75 MG/KG BW DMAB SC 3X/3 WK;, Dose [Carcinogen]: 1000 MG/KG BW DHPN IP 2X/3 WK, 1500 MG/KG BW EHEN IP 2X/3 WK, 75 MG/KG BW DMAB SC 3X/3 WK;, Promoter: NONE): 7/14 (50%), 9/12 (75%), -50%, not significant
- tumour outcome (control, treated, inhibition, significance) (Carcinogen: 2,2'-DIHYDROXY-DI-N-PROPYLNITROSAMINE [621-64-7], N-ETHYL-N-HYDROXYETHYLNITROSAMINE [13147-25-6], 3,2'-DIMETHYL-4-AMINOB, Carcinogen: 2,2'-DIHYDROXY-DI-N-PROPYLNITROSAMINE [621-64-7], N-ETHYL-N-HYDROXYETHYLNITROSAMINE [13147-25-6], 3,2'-DIMETHYL-4-AMINOB, Dose [Inhibitor]: 2% IN DIET FOR 32 WK BEGINNING 1 WK POST LAST CARCINOGEN DOSE (STUDY DURATION: 32 WK), Route [Inhibitor]: ORAL, Target Tissue: Type of Lesion: URINARY BLADDER: CARCINOMA, Dose [Carcinogen]: 1000 MG/KG BW DHPN IP 2X/3 WK, 1500 MG/KG BW EHEN IP 2X/3 WK, 75 MG/KG BW DMAB SC 3X/3 WK;, Dose [Carcinogen]: 1000 MG/KG BW DHPN IP 2X/3 WK, 1500 MG/KG BW EHEN IP 2X/3 WK, 75 MG/KG BW DMAB SC 3X/3 WK;, Promoter: NONE): 1/14 (7%), 4/12 (33%), -371%, not significant
- outcome (Carcinogen: 2,2'-DIHYDROXY-DI-N-PROPYLNITROSAMINE [621-64-7], N-ETHYL-N-HYDROXYETHYLNITROSAMINE [13147-25-6], 3,2'-DIMETHYL-4-AMINOB, Carcinogen: 2,2'-DIHYDROXY-DI-N-PROPYLNITROSAMINE [621-64-7], N-ETHYL-N-HYDROXYETHYLNITROSAMINE [13147-25-6], 3,2'-DIMETHYL-4-AMINOB, Dose [Inhibitor]: 2% IN DIET FOR 32 WK BEGINNING 1 WK POST LAST CARCINOGEN DOSE (STUDY DURATION: 32 WK), Route [Inhibitor]: ORAL, Target Tissue: Type of Lesion: URINARY BLADDER: PAPILLOMA, Dose [Carcinogen]: 1000 MG/KG BW DHPN IP 2X/3 WK, 1500 MG/KG BW EHEN IP 2X/3 WK, 75 MG/KG BW DMAB SC 3X/3 WK;, Dose [Carcinogen]: 1000 MG/KG BW DHPN IP 2X/3 WK, 1500 MG/KG BW EHEN IP 2X/3 WK, 75 MG/KG BW DMAB SC 3X/3 WK;, Promoter: NONE): 0/14 (0%), 6/12 (50%), -100%, p<0.01
- tumour outcome (control, treated, inhibition, significance) (Carcinogen: 2,2'-DIHYDROXY-DI-N-PROPYLNITROSAMINE, 53609-64-6, N-ETHYL-N-HYDROXYETHYL- NITROSAMINE, 13147-25-6, 3,2'-DIMETHYL-4-, Carcinogen: 2,2'-DIHYDROXY-DI-N-PROPYLNITROSAMINE, 53609-64-6, N-ETHYL-N-HYDROXYETHYL- NITROSAMINE, 13147-25-6, 3,2'-DIMETHYL-4-, Dose [Inhibitor]: 0, 2% IN DIET BEGINNING 1 WK POST LAST CARCINOGEN DOSE AND CONTINUING FOR 32 WK (STUDY DURATION: 36 WK), Route [Inhibitor]: 0RAL, Target Tissue: Type of Lesion: URINARY BLADDER: CARCINOMA, Dose [Carcinogen]: 1000 MG/KG IP DHPN 2X, 1500 MG/KG GAV EHEN 2X AND 75 MG/KG SC DMAB 3X GIVEN OVER THE INITIAL 3 WK PERIOD AT 3-4 D INTERV, Promoter: NONE USED): 1/14 (7%), 2/12 (17%), -143%, not calculated
- tumour outcome (control, treated, inhibition, significance) (Carcinogen: 2,2'-DIHYDROXY-DI-N-PROPYLNITROSAMINE, 53609-64-6, N-ETHYL-N-HYDROXYETHYL- NITROSAMINE, 13147-25-6, 3,2'-DIMETHYL-4-, Carcinogen: 2,2'-DIHYDROXY-DI-N-PROPYLNITROSAMINE, 53609-64-6, N-ETHYL-N-HYDROXYETHYL- NITROSAMINE, 13147-25-6, 3,2'-DIMETHYL-4-, Dose [Inhibitor]: 0, 2% IN DIET BEGINNING 1 WK POST LAST CARCINOGEN DOSE AND CONTINUING FOR 32 WK (STUDY DURATION: 36 WK), Route [Inhibitor]: ORAL, Target Tissue: Type of Lesion: LARGE INTESTINE: ADENOMA, Dose [Carcinogen]: 1000 MG/KG/ IP DHPN 2X, 1500 MG/KG GAV EHEN 2X AND 75 MG/KG SC DMAB 3X GIVEN OVER THE INITIAL 3 WK AT 3-4 D INTERVALS, Promoter: NONE USED): 7/14 (50%), 5/12 (42%), 16%, not calculated
- tumour outcome (control, treated, inhibition, significance) (Carcinogen: 2,2'-DIHYDROXY-DI-N-PROPYLNITROSAMINE, 53609-64-6, N-ETHYL-N-HYDROXYETHYL- NITROSAMINE, 13147-25-6, 3,2'-DIMETHYL-4-, Carcinogen: 2,2'-DIHYDROXY-DI-N-PROPYLNITROSAMINE, 53609-64-6, N-ETHYL-N-HYDROXYETHYL- NITROSAMINE, 13147-25-6, 3,2'-DIMETHYL-4-, Dose [Inhibitor]: 0, 2% IN DIET BEGINNING 1 WK POST LAST CARCINOGEN DOSE AND CONTINUING FOR 32 WK (STUDY DURATION: 36 WK), Route [Inhibitor]: ORAL, Target Tissue: Type of Lesion: LARGE INTESTINE: CARCINOMA, Dose [Carcinogen]: 1000 MG/KG IP DHPN 2X, 1500 MG/KG GAV EHEN 2X AND 75 MG/KG SC DMAB 3X GIVEN OVER THE INITIAL 3 WK PERIOD AT 3-4 D INTERV, Promoter: NONE USED): 3/14 (21%), 4/12 (33%), -57%, not calculated
- tumour outcome (control, treated, inhibition, significance) (Carcinogen: 2,2'-DIHYDROXY-DI-N-PROPYLNITROSAMINE, 53609-64-6, N-ETHYL-N-HYDROXYETHYL- NITROSAMINE, 13147-25-6, 3,2'-DIMETHYL-4-, Carcinogen: 2,2'-DIHYDROXY-DI-N-PROPYLNITROSAMINE, 53609-64-6, N-ETHYL-N-HYDROXYETHYL- NITROSAMINE, 13147-25-6, 3,2'-DIMETHYL-4-, Dose [Inhibitor]: 0, 2% IN DIET BEGINNING 1 WK POST LAST CARCINOGEN DOSE AND CONTINUING FOR 32 WK (STUDY DURATION: 36 WK), Route [Inhibitor]: ORAL, Target Tissue: Type of Lesion: LIVER: HEPATOCELLULAR CARCINOMA, Dose [Carcinogen]: 1000 MG/KG IP DHPN 2X, 1500 MG/KG GAV EHEN 2X AND 75 MG/KG SC DMAB 3X GIVEN OVER THE INITIAL 3 WK AT 3-4 D INTERVALS, Promoter: NONE USED): 6/14 (43%), 1/12 (8%), 81%, not calculated
- tumour outcome (control, treated, inhibition, significance) (Carcinogen: 2,2'-DIHYDROXY-DI-N-PROPYLNITROSAMINE, 53609-64-6, N-ETHYL-N-HYDROXYETHYL- NITROSAMINE, 13147-25-6, 3,2'-DIMETHYL-4-, Carcinogen: 2,2'-DIHYDROXY-DI-N-PROPYLNITROSAMINE, 53609-64-6, N-ETHYL-N-HYDROXYETHYL- NITROSAMINE, 13147-25-6, 3,2'-DIMETHYL-4-, Dose [Inhibitor]: 0, 2% IN DIET BEGINNING 1 WK POST LAST CARCINOGEN DOSE AND CONTINUING FOR 32 WK (STUDY DURATION: 36 WK), Route [Inhibitor]: ORAL, Target Tissue: Type of Lesion: LUNG: ADENOMA, Dose [Carcinogen]: 1000 MG/KG IP DHPN 2X, 1500 MG/KG GAV EHEN 2X AND 75 MG/KG SC DMAB 3X GIVEN OVER THE INITIAL 3 WK PERIOD AT 3-4 D INTERV, Promoter: NONE USED): 7/14 (50%), 9/12 (75%), -50%, not calculated
